Measured values reported in the supplement of paper PMC10627819.

Tests used:
[1] = test system: B. subtilis 168; assay: fitness (endpoint OD595 vs no drug) (fraction); higher = more growth
Procedure, shortened: (§1)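 Background-subtracted growth curves were the basis for fitness, taken as the optical density at entry into stationary phase over the robust mean of no-drug control wells. A cap of 1 was applied. The curves came from OD595 readings every 30 min for 14 h at 37 °C, in 384-well plates seeded at OD595 0.01 with 30 µl, or 55 µl for S. pneumoniae.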

[2] = test system: S. pneumoniae D39V; assay: as above
Procedure, shortened: as §1

[3] = test system: B. subtilis 168; assay: Bliss interaction score (quartile over a dose matrix) (fitness difference); higher = more antagonism (negative = synergy)
Procedure, shortened: (§2)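 The Bliss score takes observed fitness and subtracts the expected fitness, calculated as a product of single-drug fitness values. Those single-drug values were inferred from the combination data. Fitness is OD595 at entry into stationary phase divided by the plate's robust no-drug mean, capped at 1, and the score is summarised by quartiles across technical, biological and donor/recipient replicates.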

[4] = test system: S. aureus DSM 20231; assay: as above
Procedure, shortened: as §2

[5] = test system: S. aureus Newman; assay: as above
Procedure, shortened: as §2

[6] = test system: S. pneumoniae D39V; assay: as above
Procedure, shortened: as §2
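Wherever Bliss interaction score (quartile over a dose matrix) is given: first quartile when negative (synergy) and third quartile when positive (antagonism).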

CCCCCCCCCC(=O)N[C@@H](Cc1c[nH]c2ccccc12)C(=O)N[C@H](CC(N)=O)C(=O)N[C@@H](CC(=O)O)C(=O)N[C@@H]1C(=O)NCC(=O)N[C@@H](CCCN)C(=O)N[C@@H](CC(=O)O)C(=O)N[C@H](C)C(=O)N[C@@H](CC(=O)O)C(=O)NCC(=O)N[C@H](CO)C(=O)N[C@@H]([C@H](C)CC(=O)O)C(=O)N[C@@H](CC(=O)c2ccccc2N)C(=O)O[C@@H]1C [Daptomycin] + C[C@H]1COc2c(N3CCN(C)CC3)c(F)cc3c(=O)c(C(=O)O)cn1c23 [Levofloxacin]
fitness, [1], one replicate
Details | first compound 0.125 µg/mL | first compound 0.25 µg/mL | first compound 0.5 µg/mL | first compound 1 µg/mL
partner 0.001 µg/mL | 0.992 | ≥ 1 | 0.978 | –
partner 0.002 µg/mL | 0.949 | – | – | 0.753
partner 0.0039 µg/mL | 0.891 | – | – | 0.742
partner 0.0078 µg/mL | – | 0.829 | 0.882 | 0.723

Details | fitness
[1], first compound 0.125 µg/mL, partner 0.0312 µg/mL | 0.0386
[1], first compound 0.125 µg/mL, partner 0.0625 µg/mL | 0.0435
[1], first compound 0.125 µg/mL, partner 0.125 µg/mL | 0.0465
[1], first compound 0.25 µg/mL, partner 0.002 µg/mL | 0.949
[1], first compound 0.25 µg/mL, partner 0.0039 µg/mL | 0.95
[1], first compound 0.25 µg/mL, partner 0.0312 µg/mL | 0.043
[1], first compound 0.25 µg/mL, partner 0.0625 µg/mL | 0.0534
[1], first compound 0.25 µg/mL, partner 0.125 µg/mL | 0.073
[1], first compound 0.5 µg/mL, partner 0.002 µg/mL | 0.915
[1], first compound 0.5 µg/mL, partner 0.0039 µg/mL | 0.904
[1], first compound 0.5 µg/mL, partner 0.0312 µg/mL | 0.0448
[1], first compound 0.5 µg/mL, partner 0.0625 µg/mL | 0.071
[1], first compound 0.5 µg/mL, partner 0.125 µg/mL | 0.0639
[2], first compound 1 µg/mL, partner 0.1725 µg/mL | 0.909
[2], first compound 1 µg/mL, partner 0.2 µg/mL | 0.867
[2], first compound 1 µg/mL, partner 0.345 µg/mL | 0.794
[2], first compound 1 µg/mL, partner 0.4 µg/mL | 0.678
[2], first compound 1 µg/mL, partner 0.69 µg/mL | 0.531
[2], first compound 1 µg/mL, partner 0.8 µg/mL | 0.132
[2], first compound 2 µg/mL, partner 0.1725 µg/mL | 0.917
[2], first compound 2 µg/mL, partner 0.2 µg/mL | 0.88
[2], first compound 2 µg/mL, partner 0.345 µg/mL | 0.813
[2], first compound 2 µg/mL, partner 0.4 µg/mL | 0.675
[2], first compound 2 µg/mL, partner 0.69 µg/mL | 0.366
[2], first compound 2 µg/mL, partner 0.8 µg/mL | 0.165
[2], first compound 4 µg/mL, partner 0.1725 µg/mL | 0.949
[2], first compound 4 µg/mL, partner 0.2 µg/mL | 0.818
[2], first compound 4 µg/mL, partner 0.345 µg/mL | 0.86
[2], first compound 4 µg/mL, partner 0.4 µg/mL | 0.551
[2], first compound 4 µg/mL, partner 0.69 µg/mL | 0.615
[2], first compound 4 µg/mL, partner 0.8 µg/mL | 0.133

Details | Bliss interaction score
[3] | 0.0436
[4] | -0.0494
[5] | -0.0469
[6] | -0.18

CCCCCCCCCC(=O)N[C@@H](Cc1c[nH]c2ccccc12)C(=O)N[C@H](CC(N)=O)C(=O)N[C@@H](CC(=O)O)C(=O)N[C@@H]1C(=O)NCC(=O)N[C@@H](CCCN)C(=O)N[C@@H](CC(=O)O)C(=O)N[C@H](C)C(=O)N[C@@H](CC(=O)O)C(=O)NCC(=O)N[C@H](CO)C(=O)N[C@@H]([C@H](C)CC(=O)O)C(=O)N[C@@H](CC(=O)c2ccccc2N)C(=O)O[C@@H]1C [Daptomycin] + C[C@H]1c2cccc(O)c2C(=O)C2=C(O)[C@]3(O)C(=O)C(C(N)=O)=C(O)[C@@H](N(C)C)[C@@H]3[C@@H](O)[C@@H]21 [Doxycycline]
Details | fitness
[1], first compound 0.125 µg/mL, partner 0.02 µg/mL | 0.857
[1], first compound 0.125 µg/mL, partner 0.04 µg/mL | 0.794
[1], first compound 0.125 µg/mL, partner 0.08 µg/mL | 0.605
[1], first compound 0.25 µg/mL, partner 0.02 µg/mL | 0.871
[1], first compound 0.25 µg/mL, partner 0.04 µg/mL | 0.757
[1], first compound 0.25 µg/mL, partner 0.08 µg/mL | 0.595
[1], first compound 0.5 µg/mL, partner 0.02 µg/mL | 0.83
[1], first compound 0.5 µg/mL, partner 0.04 µg/mL | 0.771
[2], first compound 1 µg/mL, partner 0.0155 µg/mL | 0.733
[2], first compound 2 µg/mL, partner 0.0155 µg/mL | 0.738
[2], first compound 4 µg/mL, partner 0.0155 µg/mL | 0.795

fitness, one replicate
Details | first compound 1 µg/mL | first compound 2 µg/mL | first compound 4 µg/mL
[1], partner 0.02 µg/mL | 0.624 | – | –
[1], partner 0.04 µg/mL | 0.641 | – | –
[1], partner 0.08 µg/mL | 0.188 | – | –
[2], partner 0.003875 µg/mL | 0.928 | 0.934 | 0.981
[2], partner 0.00775 µg/mL | 0.866 | 0.878 | 0.927

Details | Bliss interaction score
[3] | 0.0559
[4] | 0.0825
[5] | 0.0504
[6] | -0.249

C[C@H]1COc2c(N3CCN(C)CC3)c(F)cc3c(=O)c(C(=O)O)cn1c23 [Levofloxacin] + CC1=C\[C@@H](O)CC(=O)Cc2nc(co2)C(=O)N2CCC=C2C(=O)O[C@H](C(C)C)[C@H](C)/C=C/C(=O)NC\C=C\1 [Virginiamycin M1]
fitness, one replicate
Details | partner 0.0625 µg/mL | partner 0.125 µg/mL | partner 0.15 µg/mL | partner 0.25 µg/mL | partner 0.3 µg/mL | partner 0.5 µg/mL | partner 1 µg/mL
[1], first compound 0.001 µg/mL | 0.869 | 0.947 | – | 0.969 | – | – | –
[1], first compound 0.002 µg/mL | 0.949 | 0.971 | – | 0.936 | – | – | –
[1], first compound 0.0039 µg/mL | 0.887 | 0.918 | – | 0.904 | – | – | –
[2], first compound 0.2 µg/mL | – | – | 0.954 | – | 0.876 | 0.925 | 0.937
[2], first compound 0.4 µg/mL | – | – | 0.921 | – | 0.913 | 0.834 | 0.832
[2], first compound 0.8 µg/mL | – | – | 0.829 | – | 0.797 | 0.539 | 0.391

Details | fitness
[1], first compound 0.0312 µg/mL, partner 0.0625 µg/mL | 0.0334
[1], first compound 0.0312 µg/mL, partner 0.125 µg/mL | 0.0383
[1], first compound 0.0312 µg/mL, partner 0.25 µg/mL | 0.0414
[1], first compound 0.0625 µg/mL, partner 0.0625 µg/mL | 0.0348
[1], first compound 0.0625 µg/mL, partner 0.125 µg/mL | 0.0328
[1], first compound 0.0625 µg/mL, partner 0.25 µg/mL | 0.0437
[1], first compound 0.125 µg/mL, partner 0.0625 µg/mL | 0.0353
[1], first compound 0.125 µg/mL, partner 0.125 µg/mL | 0.0443
[1], first compound 0.125 µg/mL, partner 0.25 µg/mL | 0.0489
[2], first compound 0.1725 µg/mL, partner 0.5 µg/mL | 0.998
[2], first compound 0.1725 µg/mL, partner 1 µg/mL | 0.992
[2], first compound 0.1725 µg/mL, partner 2 µg/mL | 0.969
[2], first compound 0.2 µg/mL, partner 2 µg/mL | 0.896
[2], first compound 0.345 µg/mL, partner 0.5 µg/mL | 0.92
[2], first compound 0.345 µg/mL, partner 1 µg/mL | 0.904
[2], first compound 0.345 µg/mL, partner 2 µg/mL | 0.9
[2], first compound 0.4 µg/mL, partner 2 µg/mL | 0.817
[2], first compound 0.69 µg/mL, partner 0.5 µg/mL | 0.539
[2], first compound 0.69 µg/mL, partner 1 µg/mL | 0.464
[2], first compound 0.69 µg/mL, partner 2 µg/mL | 0.458
[2], first compound 0.8 µg/mL, partner 2 µg/mL | 0.567

Details | Bliss interaction score
[3] | 0.0195
[4] | -0.0827
[5] | -0.0223
[6] | 0.0593
